This note sets out measurements from patent US20240400560A1, “BICYCLIC HETEROCYCLIC DERIVATIVE HAVING VIRAL GROWTH INHIBITORY ACTIVITY AND PHARMACEUTICAL COMPOSITION CONTAINING SAME” (Shionogi & Co., Ltd., priority 2021, published 2024).

One experiment relates to SARS-CoV-2. The experiment in a line: Inhibitory activity of cytopathic effect (CPE) in HEK293T/ACE2-TMPRSS2 cells. Type of experiment: cell-based. The settings on record: Severe acute respiratory syndrome coronavirus 2, HEK-293T, 72 h. (In general: Damage to the host cells serves as the signal in cytopathic effect assays.)
The next experiment deals with SARS-CoV-2 3CL protease (Severe acute respiratory syndrome coronavirus 2, UniProt P0DTD1). The experiment can be described thus: Inhibitory activity test against SARS-CoV-2 3CL proteases. Type of experiment: biochemical.
Where [1] appears, read: HEK293T/ACE2-TMPRSS2 cells, cultured 3 days, CellTiter-Glo 2.0 luminescence, read-out: EC50 (50% SARS-CoV-2 infected cell death inhibitory concentration).
Setting [2] is: read-out: IC50 (50% SARS-CoV-2 3CL protease inhibitory concentration).
Where [3] appears, read: 50% SARS-CoV-2 infected cell death inhibitory concentration, HEK293T/ACE2-TMPRSS2 cells, CellTiter-Glo 2.0 after 3 days culture, read-out: EC50.

Read-outs that look alike come from different tables or passages of the source.

As to `[2H]C([2H])([2H])O[C@@H]1CCN(c2cc3c(c(OC)n2)c(=O)n(-c2cc(C)cnn2)c(=O)n3-c2ccc(F)c(Cl)c2)C1` [Compound I-0972], in the experiment on SARS-CoV-2 (setting [1]), the EC50 is less than 100 nM. Also, at SARS-CoV-2 3CL protease (setting [2]), the IC50 was less than 100 nM.
As to `[2H]C([2H])([2H])O[C@@H]1CCN(c2cc3c(c(OC)n2)c(=O)n(-c2cncc(Cl)c2)c(=O)n3-c2ccc(F)c(F)c2)C1` [Compound I-0973], the EC50 with SARS-CoV-2 (setting [1]) is less than 100 nM. The IC50 at SARS-CoV-2 3CL protease (setting [2]) was less than 100 nM.
With `COc1nc(N2CCC(S(C)(=O)=O)C2)cc2c1c(=O)n(-c1cncc(Cl)c1)c(=O)n2-c1ccc(F)c(Cl)c1` (centres unmarked) [Compound I-0974], in the experiment with SARS-CoV-2 (setting [1]), the EC50 was less than 100 nM. Besides, the IC50 on SARS-CoV-2 3CL protease (setting [2]) was less than 100 nM.
Turning to `COc1nc(N2CCC(n3cccn3)C2)cc2c1c(=O)n(-c1cnc3cc(F)ccn13)c(=O)n2-c1ccc(F)c(Cl)c1` (centres unmarked) [Compound I-0975], the EC50 in the experiment on SARS-CoV-2 (setting [1]) is less than 100 nM. The IC50 on SARS-CoV-2 3CL protease (setting [2]) was less than 100 nM.
As to `COc1nc(C(C)C)cc2c1c(=O)n(-c1cnc3cc(F)ccn13)c(=O)n2-c1ccc(F)c(Cl)c1` [Compound I-0976], in the experiment with SARS-CoV-2 (setting [1]), the EC50 is less than 100 nM. On SARS-CoV-2 3CL protease (setting [2]), the IC50 is less than 100 nM.
`COc1nc(N2CCC(F)(F)C2)cc2c1c(=O)n(-c1cncc(C#N)c1)c(=O)n2-c1ccc(F)c(Cl)c1` [Compound I-0977]: the EC50 with SARS-CoV-2 (setting [1]) is less than 100 nM. On SARS-CoV-2 3CL protease (setting [2]), the IC50 is less than 100 nM.
Turning to `COc1nc(N2C[C@@H]3C[C@H]2CO3)cc2c1c(=O)n(-c1cnc3cc(F)ccn13)c(=O)n2-c1ccc(F)c(F)c1` [Compound I-0978], the EC50 in the experiment with SARS-CoV-2 (setting [3]) is 11.8 nM. Further, the IC50 at SARS-CoV-2 3CL protease (setting [2]) worked out at 4.8 nM.
`COc1nc(N2CC[C@@H](O)C2)cc2c1c(=O)n(-c1cncc(Cl)c1)c(=O)n2-c1ccc(F)c(F)c1` [Compound I-0979]: in the experiment on SARS-CoV-2 (setting [1]), the EC50 was less than 100 nM. For the same compound, on SARS-CoV-2 3CL protease (setting [2]), the IC50 was less than 100 nM.
As for `COc1nc(N2CC[C@@H](C#N)C2)cc2c1c(=O)n(-c1cncc(OCF)c1)c(=O)n2-c1ccc(F)c(F)c1` [Compound I-0980], the EC50 in the experiment with SARS-CoV-2 (setting [1]) is less than 100 nM. The IC50 on SARS-CoV-2 3CL protease (setting [2]) is less than 100 nM.
On to `[2H]C([2H])([2H])O[C@@H]1CCN(c2cc3c(c(OC)n2)c(=O)n(-c2cnc4cc(F)ccn24)c(=O)n3-c2ccc(F)c(C(F)F)c2)C1` [Compound I-0981], for which, in the experiment with SARS-CoV-2 (setting [1]), the EC50 was less than 100 nM. Further, on SARS-CoV-2 3CL protease (setting [2]), the IC50 is less than 100 nM.
Turning to `COc1nc(N2CC[C@@H](F)C2)cc2c1c(=O)n(-c1cnc3cc(F)ccn13)c(=O)n2-c1ccc(F)c(F)c1` [Compound I-0982], the EC50 with SARS-CoV-2 (setting [1]) was less than 100 nM. Moreover, the IC50 at SARS-CoV-2 3CL protease (setting [2]) is less than 100 nM.
Take `COc1nc(N2CC[C@@H](C(F)F)C2)cc2c1c(=O)n(-c1cnc3cc(F)ccn13)c(=O)n2-c1ccc(F)c(Cl)c1` [Compound I-0983]: in the experiment on SARS-CoV-2 (setting [1]), the EC50 was less than 100 nM. Besides, the IC50 on SARS-CoV-2 3CL protease (setting [2]) is less than 100 nM.
For `COc1nc(N2CC[C@@H](C#N)C2)cc2c1c(=O)n(-c1cncc(C#N)c1)c(=O)n2-c1ccc(F)c(F)c1` [Compound I-0984], the EC50 with SARS-CoV-2 (setting [1]) is less than 100 nM. Further, the IC50 at SARS-CoV-2 3CL protease (setting [2]) is less than 100 nM.
For the compound `COc1nc(N2C[C@H]3COC[C@H]3C2)cc2c1c(=O)n(-c1cnc3cc(F)ccn13)c(=O)n2-c1ccc(F)c(Cl)c1` [Compound I-0985], in the experiment on SARS-CoV-2 (setting [1]), the EC50 is less than 100 nM. Moreover, the IC50 on SARS-CoV-2 3CL protease (setting [2]) was less than 100 nM.
Consider `COc1nc(N(C)C)cc2c1c(=O)n(-c1cnc3cc(F)ccn13)c(=O)n2-c1ccc(F)c(Cl)c1` [Compound I-0986], for which the EC50 with SARS-CoV-2 (setting [3]) came to 7.1 nM. The IC50 at SARS-CoV-2 3CL protease (setting [2]) was determined as 6.5 nM.
As to `COc1nc(N2CC(F)C2)cc2c1c(=O)n(-c1cnc3cc(F)ccn13)c(=O)n2-c1ccc(F)c(Cl)c1` [Compound I-0987], the EC50 in the experiment on SARS-CoV-2 (setting [1]) was less than 100 nM. The IC50 on SARS-CoV-2 3CL protease (setting [2]) was less than 100 nM.
Consider `O=c1c2c(=O)n(-c3cnc4cc(F)ccn34)c(=O)n(-c3ccc(F)c(Cl)c3)c2cc2n1C[C@@H]1CCCCN21` [Compound I-0988], for which, in the experiment with SARS-CoV-2 (setting [1]), the EC50 lay within 100 to 1000 nM. Further, the IC50 on SARS-CoV-2 3CL protease (setting [2]) was less than 100 nM.
The matching figures for `COc1nc(N2C[C@H]3C[C@@H]2CO3)cc2c1c(=O)n(-c1cnc3cc(F)ccn13)c(=O)n2-c1ccc(F)c(Cl)c1` [Compound I-0989]: less than 100 nM and less than 100 nM.
`COc1nc(N2CC[C@@H](C#N)C2)cc2c1c(=O)n(-c1cncc(F)c1)c(=O)n2-c1ccc(F)c(F)c1` [Compound I-0990]: the EC50 in the experiment on SARS-CoV-2 (setting [3]) was determined as 8.89 nM. The IC50 on SARS-CoV-2 3CL protease (setting [2]) came to 6.8 nM.
On to `COc1nc(N2C[C@@H]3C[C@H]2CO3)cc2c1c(=O)n(-c1cncc(C#N)c1)c(=O)n2-c1ccc(F)c(F)c1` [Compound I-0991], for which the EC50 in the experiment with SARS-CoV-2 (setting [1]) was less than 100 nM. For the same compound, the IC50 at SARS-CoV-2 3CL protease (setting [2]) is less than 100 nM.
For the compound `COc1nc(N2CC[C@@H](O)C2)cc2c1c(=O)n(-c1cnc3ccc(C#N)cn13)c(=O)n2-c1ccc(F)c(Cl)c1` [Compound I-0992], the EC50 in the experiment on SARS-CoV-2 (setting [1]) was less than 100 nM. Besides, the IC50 on SARS-CoV-2 3CL protease (setting [2]) was less than 100 nM.
In the case of `CCN(C)c1cc2c(c(OC)n1)c(=O)n(-c1cnc3cc(F)ccn13)c(=O)n2-c1ccc(F)c(Cl)c1` [Compound I-0993], the EC50 in the experiment with SARS-CoV-2 (setting [1]) is less than 100 nM. Further, the IC50 at SARS-CoV-2 3CL protease (setting [2]) was less than 100 nM.
With `COc1nc(N2CC[C@@H](NC(C)=O)C2)cc2c1c(=O)n(-c1cncc(Cl)c1)c(=O)n2-c1ccc(F)c(Cl)c1` [Compound I-0994], the EC50 in the experiment on SARS-CoV-2 (setting [1]) is less than 100 nM. Further, the IC50 at SARS-CoV-2 3CL protease (setting [2]) was less than 100 nM.
Regarding `COc1nc(N2CC[C@@H](C#N)C2)cc2c1c(=O)n(-c1cncc(OC(F)F)c1)c(=O)n2-c1ccc(F)c(F)c1` [Compound I-0995], the EC50 in the experiment on SARS-CoV-2 (setting [1]) is less than 100 nM. Also, the IC50 at SARS-CoV-2 3CL protease (setting [2]) was less than 100 nM.
Turning to `CCNc1cc2c(c(OC)n1)c(=O)n(-c1cnc3cc(F)ccn13)c(=O)n2-c1ccc(F)c(Cl)c1` [Compound I-0996], the EC50 in the experiment on SARS-CoV-2 (setting [1]) was less than 100 nM. Besides, the IC50 at SARS-CoV-2 3CL protease (setting [2]) was less than 100 nM.
Consider `COc1nc(N2CCC(F)(F)C2)cc2c1c(=O)n(-c1cncc(C)n1)c(=O)n2-c1ccc(F)c(Cl)c1` [Compound I-0997], for which, in the experiment with SARS-CoV-2 (setting [1]), the EC50 is less than 100 nM. The IC50 at SARS-CoV-2 3CL protease (setting [2]) was less than 100 nM.
In the case of `COc1nc(N2CCC(F)(F)C2)cc2c1c(=O)n(-c1cncc(F)c1)c(=O)n2-c1ccc(F)c(Cl)c1` [Compound I-0998], the EC50 with SARS-CoV-2 (setting [1]) was less than 100 nM. At SARS-CoV-2 3CL protease (setting [2]), the IC50 was less than 100 nM.
As for `C=Cc1cc2c(c(OC)n1)c(=O)n(-c1cnc3cc(F)ccn13)c(=O)n2-c1ccc(F)c(Cl)c1` [Compound I-0999], in the experiment with SARS-CoV-2 (setting [1]), the EC50 lay within 100 to 1000 nM. On SARS-CoV-2 3CL protease (setting [2]), the IC50 was less than 100 nM.
In the case of `CNC(=O)[C@@H]1CCN(c2cc3c(c(OC)n2)c(=O)n(-c2cnc4cc(F)ccn24)c(=O)n3-c2ccc(F)c(Cl)c2)C1` [Compound I-1000], the EC50 in the experiment on SARS-CoV-2 (setting [1]) was less than 100 nM. For the same compound, the IC50 on SARS-CoV-2 3CL protease (setting [2]) was less than 100 nM.
As to `COc1nc(N2[C@@H]3CC[C@H]2COC3)cc2c1c(=O)n(-c1cnc3cc(F)ccn13)c(=O)n2-c1ccc(F)c(Cl)c1` [Compound I-1001], the EC50 with SARS-CoV-2 (read-out: EC50 (50% SARS-CoV-2 infected cell death inhibitory concentration)) was less than 100 nM. The compound further displayed an IC50 against SARS-CoV-2 3CL protease (IC50 (50% SARS-CoV-2 3CL protease inhibitory concentration)) of less than 100 nM.
Turning to `COc1nc(N2CCC2)cc2c1c(=O)n(-c1cnc3cc(F)ccn13)c(=O)n2-c1ccc(F)c(Cl)c1` [Compound I-1002], the EC50 with SARS-CoV-2 (setting [1]) was less than 100 nM. Further, the IC50 on SARS-CoV-2 3CL protease (setting [2]) was less than 100 nM.
For the compound `COc1nc(N2CCC(F)(F)C2)cc2c1c(=O)n(-c1cc(C)cnn1)c(=O)n2-c1ccc(F)c(Cl)c1` [Compound I-1003], the EC50 in the experiment with SARS-CoV-2 (setting [1]) is less than 100 nM. Also, the IC50 at SARS-CoV-2 3CL protease (setting [2]) is less than 100 nM.
`COc1nc(N2CCC(O)(CF)C2)cc2c1c(=O)n(-c1cncc(Cl)c1)c(=O)n2-c1ccc(F)c(Cl)c1` (centres unmarked) [Compound I-1004]: the EC50 in the experiment with SARS-CoV-2 (setting [1]) is less than 100 nM. Further, at SARS-CoV-2 3CL protease (setting [2]), the IC50 was less than 100 nM.
`[2H]C([2H])([2H])O[C@@H]1CCN(c2cc3c(c(OC)n2)c(=O)n(-c2cnc4cc(F)ccn24)c(=O)n3-c2ccc(F)c(F)c2)C1` [Compound I-1005]: the EC50 in the experiment with SARS-CoV-2 (setting [3]) turned out to be 8.65 nM. Also, on SARS-CoV-2 3CL protease (setting [2]), the IC50 was found to be 8.9 nM.
